Source: ChEMBL document CHEMBL4414615, “Sparticolins A-G, Biologically Active Oxidized Spirodioxynaphthalene Derivatives from the Ascomycete Sparticola junci” (J Nat Prod, 2019)
Values after ≈ are worked out from the molar mass of the structure shown. Active and inactive are the calls of the source. No cut-off for these calls is given here.

Legend:
Staphylococcus aureus = experiment: Antibacterial activity against Staphylococcus aureus DSM 346 incubated for 24 hrs by broth microdilution method; type: functional; conditions: DSM 346, 24 h
Wickerhamomyces anomalus [1] = experiment: Antifungal activity against Pichia anomala DSM 6766 at 66 ug/ml incubated for 48 hrs by broth microdilution method; type: functional, organism-based
Mucor hiemalis [2] = experiment: Antifungal activity against Mucor hiemalis DSM 2656 incubated for 48 hrs by broth microdilution method; type: functional
MCF7 = experiment: Cytotoxicity against human MCF7 cells assessed as reduction in cell growth incubated for 5 days by MTT assay; type: functional, cell-based
L929 = experiment: Cytotoxicity against mouse L929 cells assessed as reduction in cell growth incubated for 5 days by MTT assay; type: functional, cell-based
A-431 = experiment: Cytotoxicity against human A431 cells assessed as reduction in cell growth incubated for 5 days by MTT assay; type: functional, cell-based
Bacillus subtilis [3] = experiment: Antibacterial activity against Bacillus subtilis DSM 10 incubated for 24 hrs by broth microdilution method; type: functional; conditions: DSM 10, 24 h
KB 3-1 = experiment: Cytotoxicity against human KB3-1 cells assessed as reduction in cell growth incubated for 5 days by MTT assay; type: functional, cell-based
Pseudomonas aeruginosa [4] = experiment: Antibacterial activity against Pseudomonas aeruginosa DSM PA14 at 66 ug/ml incubated for 24 hrs by broth microdilution method; type: functional, organism-based
Escherichia coli [5] = experiment: Antibacterial activity against Escherichia coli DSM 1116 at 66 ug/ml incubated for 24 hrs by broth microdilution method; type: functional, organism-based
A549 = experiment: Cytotoxicity against human A549 cells assessed as reduction in cell growth incubated for 5 days by MTT assay; type: functional, cell-based
Rhodotorula glutinis [6] = experiment: Antifungal activity against Rhodotorula glutinis DSM 10134 incubated for 48 hrs by broth microdilution method; type: functional
[7] = test system: Chromobacterium violaceum; experiment: Antibacterial activity against Chromobacterium violaceum DSM 30191 at 66 ug/ml incubated for 24 hrs by broth microdilution method; type: functional, organism-based
Micrococcus luteus [8] = experiment: Antibacterial activity against Micrococcus luteus DSM 1790 incubated for 24 hrs by broth microdilution method; type: functional; conditions: DSM 1790, 24 h
Caenorhabditis elegans = experiment: Nematicidal activity against Caenorhabditis elegans incubated for 18 hrs; type: functional; conditions: for LC50: read-out: LD50 (the source's name)
[9] = test system: Schizosaccharomyces pombe; experiment: Antifungal activity against Schizosaccharomyces pombe DSM 70572 incubated for 48 hrs by broth microdilution method; type: functional
PC-3 = experiment: Cytotoxicity against human PC3 cells assessed as reduction in cell growth incubated for 5 days by MTT assay; type: functional, cell-based
SK-OV-3 = experiment: Cytotoxicity against human SKOV3 cells assessed as reduction in cell growth incubated for 5 days by MTT assay; type: functional, cell-based
Candida albicans [10] = experiment: Antifungal activity against Candida albicans DSM 1665 at 66 ug/ml incubated for 48 hrs by broth microdilution method; type: functional, organism-based
[11] = test system: Mycolicibacterium smegmatis; experiment: Antibacterial activity against Mycobacterium smegmatis ATCC 700084 at 66 ug/ml incubated for 24 hrs by broth microdilution method; type: functional, organism-based
[12] = test system: Mycolicibacterium smegmatis; experiment: Antibacterial activity against Mycobacterium smegmatis ATCC 700084 incubated for 24 hrs by broth microdilution method; type: functional; conditions: ATCC 700084, 24 h
Bacillus subtilis [13] = experiment: Antibacterial activity against Bacillus subtilis DSM 10 at 66 ug/ml incubated for 24 hrs by broth microdilution method; type: functional, organism-based
[14] = test system: Schizosaccharomyces pombe; experiment: Antifungal activity against Schizosaccharomyces pombe DSM 70572 at 66 ug/ml incubated for 48 hrs by broth microdilution method; type: functional, organism-based
Rhodotorula glutinis [15] = experiment: Antifungal activity against Rhodotorula glutinis DSM 10134 at 66 ug/ml incubated for 48 hrs by broth microdilution method; type: functional, organism-based
Micrococcus luteus [16] = experiment: Antibacterial activity against Micrococcus luteus DSM 1790 at 66 ug/ml incubated for 24 hrs by broth microdilution method; type: functional, organism-based
Mucor hiemalis [17] = experiment: Antifungal activity against Mucor hiemalis DSM 2656 at 66 ug/ml incubated for 48 hrs by broth microdilution method; type: functional, organism-based
Pseudomonas aeruginosa [18] = experiment: Antibacterial activity against Pseudomonas aeruginosa DSM PA14 incubated for 24 hrs by broth microdilution method; type: functional, organism-based
Escherichia coli [19] = experiment: Antibacterial activity against Escherichia coli DSM 1116 incubated for 24 hrs by broth microdilution method; type: functional; conditions: DSM 1116, 24 h
[20] = test system: Chromobacterium violaceum; experiment: Antibacterial activity against Chromobacterium violaceum DSM 30191 incubated for 24 hrs by broth microdilution method; type: functional; conditions: DSM 30191, 24 h
Wickerhamomyces anomalus [21] = experiment: Antifungal activity against Pichia anomala DSM 6766 incubated for 48 hrs by broth microdilution method; type: functional
Candida albicans [22] = experiment: Antifungal activity against Candida albicans DSM 1665 incubated for 48 hrs by broth microdilution method; type: functional
[23] = Homo sapiens, MCF7, 120 h, read-out: IC50
[24] = Mus musculus, L929, 120 h, read-out: IC50
[25] = Homo sapiens, A-431, 120 h, read-out: IC50
[26] = Homo sapiens, KB 3-1, 120 h, read-out: IC50
[27] = Homo sapiens, A549, 120 h, read-out: IC50
[28] = Homo sapiens, PC-3, 120 h, read-out: IC50
[29] = Homo sapiens, SK-OV-3, 120 h, read-out: IC50

Compound | MIC (Staphylococcus aureus) | Activity (Wickerhamomyces anomalus [1]) | IC50 (KB 3-1; [26]) | Activity (Pseudomonas aeruginosa [4]) | Activity (Escherichia coli [5]) | Activity [7] | LC50 (Caenorhabditis elegans) | Activity (Candida albicans [10]) | Activity [11] | Activity (Bacillus subtilis [13]) | Activity [14] | IC50 (MCF7; mcf7) | Activity (Rhodotorula glutinis [15]) | IC50 (L929; l929) | IC50 (A-431; a-431) | IC50 (A549; a549) | Activity (Micrococcus luteus [16]) | Activity (Mucor hiemalis [17]) | IC50 (PC-3; pc-3) | IC50 (SK-OV-3; sk-ov-3) | also measured
O=C(O)/C=C/C=C1\C(=O)C=CC12Oc1cccc3cccc(c13)O2 | 4.2 µg/mL (≈ 13.1 µM) | inactive | 800 nM | inactive | inactive | inactive | 50 µg/mL (≈ 156 µM) | inactive | inactive |  |  |  |  |  |  |  |  |  |  |  | MIC (Mucor hiemalis [2]; DSM 2656, 48 h): 16.7 µg/mL (≈ 52.1 µM); IC50 (MCF7; [23]): 400 nM; IC50 (L929; [24]): 600 nM; IC50 (A-431; [25]): 200 nM; MIC (Bacillus subtilis [3]): 4.2 µg/mL (≈ 13.1 µM); IC50 (A549; [27]): 2200 nM; MIC (Rhodotorula glutinis [6]; DSM 10134, 48 h): 33.3 µg/mL (≈ 104 µM); MIC (Micrococcus luteus [8]): 8.3 µg/mL (≈ 25.9 µM); MIC ([9]; DSM 70572, 48 h): 33.3 µg/mL (≈ 104 µM); IC50 (PC-3; [28]): 900 nM; IC50 (SK-OV-3; [29]): 600 nM
C/C(=C\c1csc(C)n1)[C@@H]1C[C@@H]2O[C@]2(C)CCC[C@H](C)[C@H](O)[C@@H](C)C(=O)C(C)(C)[C@@H](O)CC(=O)O1 [PATUPILONE] |  |  | 0.089 nM |  |  |  |  |  |  |  |  |  |  |  |  |  |  |  |  |  | IC50 (MCF7; [23]): 0.24 nM; IC50 (L929; [24]): 1.4 nM; IC50 (A-431; [25]): 0.079 nM; IC50 (A549; [27]): 0.069 nM; IC50 (PC-3; [28]): 1.6 nM; IC50 (SK-OV-3; [29]): 0.28 nM
NC[C@H]1O[C@H](O[C@H]2[C@H](O)[C@@H](O[C@H]3O[C@H](CO)[C@@H](O)[C@H](N)[C@H]3O)[C@H](N)C[C@@H]2N)[C@H](O)[C@@H](O)[C@@H]1O [KANAMYCIN] |  |  |  |  |  |  |  |  |  |  |  |  |  |  |  |  |  |  |  |  | MIC [12]: 4.1 µg/mL (≈ 8.46 µM)
O=C(O)/C=C/C[C@H]1[C@@H](O)C=CC12Oc1cccc3cccc(c13)O2 | 66.6 µg/mL (≈ 205 µM) | inactive | 40100 nM | inactive | inactive | inactive | 25 µg/mL (≈ 77.1 µM) | inactive | inactive | inactive | inactive | Not Active | inactive | Not Active | Not Active | Not Active | inactive | inactive | Not Active | Not Active | 
O=C(O)/C=C/C=C1\[C@@H](O)C[C@H](O)C12Oc1cccc3cccc(c13)O2 | 66.6 µg/mL (≈ 196 µM) | inactive |  | inactive | inactive | inactive | 50 µg/mL (≈ 147 µM) | inactive | inactive | inactive | inactive | Not Active | inactive | Not Active | Not Active | Not Active | inactive | inactive | Not Active | Not Active | IC50 (KB 3-1; kb 3-1): Not Active
GENTAMICIN |  |  |  |  |  |  |  |  |  |  |  |  |  |  |  |  |  |  |  |  | MIC (Pseudomonas aeruginosa [18]): 1 µg/mL
O=C(O)/C=C/C=C1\[C@@H](O)C=CC12Oc1cccc3cccc(c13)O2 | 66.6 µg/mL (≈ 207 µM) | inactive |  | inactive | inactive | inactive | 50 µg/mL (≈ 155 µM) | inactive | inactive | inactive | inactive | Not Active | inactive | Not Active | Not Active | Not Active | inactive | inactive | Not Active | Not Active | IC50 (KB 3-1; kb 3-1): Not Active
IVERMECTIN |  |  |  |  |  |  |  |  |  |  |  |  |  |  |  |  |  |  |  |  | LD50 (Caenorhabditis elegans): 1 µg/mL
CN(C)[C@@H]1C(=O)C(C(N)=O)=C(O)[C@@]2(O)C(=O)C3=C(O)c4c(O)cccc4[C@@](C)(O)[C@H]3[C@H](O)[C@@H]12.Cl | 2.1 µg/mL |  |  |  |  |  |  |  |  |  |  |  |  |  |  |  |  |  |  |  | MIC (Escherichia coli [19]): 33.3 µg/mL; MIC (Bacillus subtilis [3]): 2.4 µg/mL; MIC (Micrococcus luteus [8]): 4.2 µg/mL; MIC [20]: 4.1 µg/mL
NYSTATIN |  |  |  |  |  |  |  |  |  |  |  |  |  |  |  |  |  |  |  |  | MIC (Wickerhamomyces anomalus [21]): 8.3 µg/mL; MIC (Mucor hiemalis [2]): 4.2 µg/mL; MIC (Candida albicans [22]): 8.3 µg/mL; MIC (Rhodotorula glutinis [6]): 1 µg/mL; MIC [9]: 8.3 µg/mL
